Experimental data published in patent US8563514B2, “Peptides and pharmaceutical compositions for treating connective tissue” (Metamorefix, priority 2007, dated 2013).
Entries after “also recorded” stand apart in the source; their conditions may differ.

Assays:
[1] = system: human foreskin fibrobalsts (FF1); assay: Cell attachment assay in monolayers (peptide-coated Sepharose beads), FF1; format: cell-based; conditions: for cell binding activity at the lower dose (words): 6 mg peptide/ml compared with 12 mg/ml; for time to saturated attachment: Conclusions b109, concentration and cell type not stated; for Nomarsky optics microscopy of peptide coated beads attached to FF1 (observation): 3 days to 3 weeks of incubation; for activity in comparison with the positive control PreC-gamma: FIG. 3b, cell type not stated
Experimental: (§1) 100 mg of dried CNBr-Sepharose Beads (yields 350 μl of swollen Sepharose Beads—gel) was introduced into a disposable polystyrene mini-column (FIG. 1), appropriate for the preparation of a 0.5-2 ml gel filtration column (Pierce, Prod #29920). The lower part of the columns is blocked by a thick glass filter and a stopper.
(§2) 3-4 ml total volume of HCl solution (1 mM) was added to the column, and the liquid was forced to flow under vacuum pressure through the gel. This process was repeated 5 times. The final aliquot of HCl was aspirated until cracks appeared in the gel cake. 2-3 ml aliquots of coupling buffer were immediately added to the washed beads and aspirated. This step was repeated 4-5 times. The high pH hydrolyzes and opens the active groups.
(§3) A peptide solution in coupling buffer prepared as above was immediately added to the activated SEPHAROSE BEADS Sepharose beads were used to fixate the peptides for all in-vitro assays in the column to a final binding of 6 mg peptide per ml SEPHAROSE BEADS gel. The column was closed and shaken overnight at 4° C. very gently to avoid mechanical breakage of SEPHAROSE BEADS. The bottom cap of the column was removed and the solution of ligand/buffer was collected as the Sepharose Beads settled on the filter. The OD280 of the collected buffer was checked to determine the concentration of uncoupled peptide. The gel was washed/aspirated with 5 volumes (˜2 ml) of coupling buffer and gently mixed. Any remaining active groups on the gel were blocked with blocking buffer for 2 hours at room temperature or overnight at 4° C. The Sepharose Beads gel with peptides was then washed by 2 cycles each of 5 gel volumes of: • a. 0.1 M Acetate buffer • b. Coupling buffer • c. Storing buffer: azide-coupling buffer: coupling buffer containing 0.1% NaN3 (final concentration)
(§4) The tested peptides (Table 1) were coupled to Sepharose Beads at two concentrations: 6 and 12 mg/ml Sepharose Beads. Sepharose Beads that underwent the coupling procedure without peptide addition (“naked Sepharose Beads”) served as a negative control (referred to herein as “Sepharose Beads—blank”). A cell binding assay was performed with 2 normal cell types: bovine aortal endothelial cells (BAEC) and human foreskin fibrobalsts (FF1). Sepharose Beads were added to 12 well culture plates with sub-confluent monolayer of the cultured cells (100-300 beads were added to each well). The fraction of Sepharose Beads attached to the monolayer was monitored at different times.

[2] = system: bovine aortal endothelial cells (BAEC); assay: Cell attachment assay in monolayers (peptide-coated Sepharose beads), BAEC; format: cell-based; conditions: for cell binding activity at the lower dose (words): BAEC monolayer, 6 mg peptide/ml compared with 12 mg/ml; for Nomarsky optics microscopy of peptide coated beads attached to BAEC (observation): 3 weeks of incubation; for overall activity at longer incubation times: microscopy, statement follows FF1 and BAEC paragraphs
Experimental: as §1, §2, §3, §4

BAEC = assay: Toxicity assay for the peptides (MTS cell survival), BAEC; format: cell-based, bovine
Experimental: (§5) A toxicity assay was done to determine the toxicity of the peptides tested to either one of the cell lines used. 15×10^3 cells (FF1 or BAEC) were seeded in 96 well plastic plates. After an overnight incubation, increasing concentrations of peptides in the range of 0.1-300 μg/ml were added to the wells. Cell survival was checked by the MTS assay after 2 and 5 days and normalized to the cell number of the controls (no peptide).

FF1 = assay: Toxicity assay for the peptides (MTS cell survival), FF1; format: cell-based, human
Experimental: as §5

FF1 in suspension = assay: Cell attachment assay in cell suspensions (MTS assay); format: cell-based, human; conditions: followed over days
Text: Attachment of FF1 in suspension to peptides bound to sepharose beads was followed using the MTS assay. The MTS assay uses tetrazolium, which is taken up by viable cells and converted into formazan, which has a light absorption peak at 492 nm. The light absorbance at 492 (OD492) is directly proportional to the number of the living cells attached to the beads. Calibration curves were used to transform the OD492 readings into cell number, […]

[3] = FF1 monolayer, 6 mg peptide/ml Sepharose beads
[4] = FF1, FIG. 3a, peptide concentration not given
[5] = high concentrations (>100 μg/ml), 5 days
[6] = very high concentrations (>100 μg/ml), prolonged exposure (5 days)

For “C-Fic-a-K: peptide having the sequence KGYKYSYKVSEMKVRPAK (SEQ ID NO: 4) (listed as Homo sapiens)”, the “cell binding (extent reached)” value [1, 3] was 100%.
With “C-Fic: peptide having the sequence KGYNYSYKSEMKVRPA (SEQ ID NO: 1); subsequence of human ficolin (listed as Homo sapiens)” the “extent of cell binding” value ([1]; FF1, 6 mg peptide/ml, after 96 hours of incubation) was “about 30%”, the “cell binding activity at the lower dose (words)” value ([1]; FF1 monolayer) was “no reactivity” and the “cell binding activity at the lower dose (words)” value ([1]; FF1 monolayer, listed as C-fic) was “did not attach; also recorded: looses its activity; also recorded: inactive”. The “cell binding (extent reached)” value ([1]; FF1 monolayer, 12 mg peptide/ml, up to 150 hours) was 100%, the “cell binding activity at the lower dose (words)” value [2] was “completely looses reactivity” and the “cell binding activity at the lower dose (words)” value ([2]; listed as C-fic) was “did not attach; also recorded: some activity”. For the same substance, the “extent of cell binding” value ([2]; BAEC, 6 mg peptide/ml, after 96 hours of incubation) was “about 30%”.
“C-M-Fic2: peptide having the sequence KGYKYSYKGGWTVFQRRMDGSVDFYR (SEQ ID NO: 8) (listed as Homo sapiens)” was tested, and the “cell binding (extent reached)” value [1, 4] was 100% and the “kinetic profile of cell binding” value [1, 4] was “good kinetic profile of cell binding (fast attachment)”.
For “C-M-Fic2K: peptide having the sequence KGYKYSYKGGWTVFQRRMDGSVDFYRK (SEQ ID NO: 6) (listed as Homo sapiens)”, the “cell binding (extent reached)” value [1, 4] was 100% and the “kinetic profile of cell binding” value [1, 4] was “good kinetic profile of cell binding (fast attachment)”.
“C-M-Fic-a-K: peptide having the sequence KGYKYSYKVSEMKFQRRMDGSVDFYRK (SEQ ID NO: 7) (listed as Homo sapiens)” was tested, and the “rate / kinetics of cell binding compared with positive control PreC” value ([1]; FF1 monolayer, 6 mg peptide/ml) was “accelerated the kinetics of cell binding”.
For “C-M-Fic: peptide having the sequence KGYNYSYKVSEMKFQRRVDGSVDFYRK (SEQ ID NO: 3) (listed as Homo sapiens)”, the “cell survival, normalized to controls” value (BAEC; [5]) was “about 50%”, the “toxicity” value (BAEC; [6]) was “some minor toxicity” and the “time to saturated attachment” value [1] was 72 h. For the same substance, the “Nomarsky optics microscopy of peptide coated beads attached to FF1 (observation)” value ([1]; FF1) was “aggregates of cells and beads formed”, the “time to reach 100% / saturated cell binding” value ([1]; FF1 monolayer, 6 mg peptide/ml) was 96 h and the “cell binding (extent reached)” value [1, 3] was 100%. The “cell binding activity at the lower dose (words)” value ([1]; FF1 monolayer) was “strongly affected by the decrease”, the “cell binding activity at the lower dose (words)” value ([1]; FF1 monolayer, listed as C-M-fic) was “strongly affected by the lowerdose” and the “time to reach 100% / saturated cell binding” value ([1]; FF1 monolayer, 6 mg peptide/ml, listed as C-M-fic) was ≤ 96 h. The “rate of cell binding compared to the lower concentration” value ([1]; FF1 monolayer, 12 mg peptide/ml) was “slightly faster cell binding”, the “time to reach 100% cell binding” value ([1]; FF1 monolayer, higher dose (12 mg/ml)) was 20 h and the “cell binding activity at the lower dose (words)” value [2] was “slower rate at the lower concentration”. For the same substance, the “Nomarsky optics microscopy of peptide coated beads attached to BAEC (observation)” value ([2]; BAEC) was “formation of small tubes”, the “overall activity at longer incubation times” value [2] was “also active” and the “cell survival, normalized to controls” value (FF1; [5]) was “about 50%”. The “toxicity” value (FF1; [6]) was “some minor toxicity”, the “attachment of FF1 cells in suspension to coated sepharose beads over time (words)” value (FF1 in suspension; listed as C-M-fic) was “an increase in cell number is detected after the first day” and the “attachment of FF1 cells in suspension to coated sepharose beads over time (words)” value (FF1 in suspension; listed as CM-fic) was “stable for at least three days”.
For “M-Fic-K: peptide having the sequence GGWTVFQRRMDGSVDFYRK (SEQ ID NO: 5) (listed as Homo sapiens)”, the “activity in comparison with the positive control PreC-gamma” value ([1]; 6 mg peptide/ml) was “dramatic change in activity”.
For “M-Fic: peptide having the sequence GGWTVFQRRVDGSVDFYRK (SEQ ID NO: 2) (listed as Homo sapiens)”, the “time to saturated attachment” value [1] was 72 h, the “Nomarsky optics microscopy of peptide coated beads attached to FF1 (observation)” value ([1]; FF1) was “aggregates of cells and beads formed” and the “time to reach 100% / saturated cell binding” value ([1]; FF1 monolayer, 6 mg peptide/ml) was ≤ 24 h. For the same substance, the “cell binding activity at the lower dose (words)” value ([1]; FF1 monolayer) was “retains its activity”, the “cell binding activity at the lower dose (words)” value ([1]; FF1 monolayer, listed as M-fic) was “retain most of its activity” and the “activity in comparison with the positive control PreC-gamma” value ([1]; 6 mg peptide/ml) was “initially inferior to the positive control”. The “cell binding activity at the lower dose (words)” value [2] was “slight decrease”, the “Nomarsky optics microscopy of peptide coated beads attached to BAEC (observation)” value ([2]; BAEC) was “formation of small tubes” and the “overall activity at longer incubation times” value [2] was “highest activity”.
In the case of “PreC: positive control peptide KTRWYSMKKTTMKIIPFNR (SEQ ID NO: 10) (listed as Homo sapiens) [reference compound]”, the “cell binding (extent reached)” value [1, 3] is reported as 100%.
